BindingDB's records for doi:10.1016/s0960-894x(01)00004-x (Seoul National University, 2001)

Target: Prostaglandin G/H synthase 1 (Oryctolagus cuniculus)
Experiment: Inhibitory activity against Prostaglandin G/H synthase 1 from rabbit renal microsomes

IC50 | Compound
45.6 µM | C=C[C@@]1(C)CC=C2C(CCC3[C@](C)(C(=O)NO)CCC[C@@]23C)C1 (stereo partly drawn) [(1R,4aR,7S)-1,4a,7-Trimethyl-7-vinyl-1,2,3,4,4a,6,7,8,8a,9,10,10a-dodecahydro-phenanthrene-1-carboxylic acid hydroxyamide]
> 1000 µM | C=C[C@@]1(C)CC=C2C(CCC3[C@](C)(C(=O)OC)CCC[C@@]23C)C1 (stereo partly drawn) [(1R,4aR,7S)-1,4a,7-Trimethyl-7-vinyl-1,2,3,4,4a,6,7,8,8a,9,10,10a-dodecahydro-phenanthrene-1-carboxylic acid methyl ester]
18.4 µM | C[C@]1(CCF)CC=C2C(CCC3[C@](C)(C(=O)F)CCC[C@@]23C)C1 (stereo partly drawn) [(1R,4aR,7S)-7-(2-Fluoro-ethyl)-1,4a,7-trimethyl-1,2,3,4,4a,6,7,8,8a,9,10,10a-dodecahydro-phenanthrene-1-carbonyl fluoride]
229 µM | CC[C@@]1(C)CC=C2C(CCC3[C@](C)(C(=O)O)CCC[C@@]23C)C1 (stereo partly drawn) [(1R,4aR,7S)-7-Ethyl-1,4a,7-trimethyl-1,2,3,4,4a,6,7,8,8a,9,10,10a-dodecahydro-phenanthrene-1-carboxylic acid]
28.1 µM | C=C[C@@]1(C)CC=C2C(CCC3[C@](C)(CC(=O)O)CCC[C@@]23C)C1 (stereo partly drawn) [((1S,4aR,7S)-1,4a,7-Trimethyl-7-vinyl-1,2,3,4,4a,6,7,8,8a,9,10,10a-dodecahydro-phenanthren-1-yl)-acetic acid]
32.7 µM | C=C[C@@]1(C)CC=C2C(CCC3[C@](C)(CCC/C=C/C(=O)O)CCC[C@@]23C)C1 (stereo partly drawn) [(E)-6-((1R,4aR,7S)-1,4a,7-Trimethyl-7-vinyl-1,2,3,4,4a,6,7,8,8a,9,10,10a-dodecahydro-phenanthren-1-yl)-hex-2-enoic acid]
791 µM | C=C[C@@]1(C)CC=C2C(CCC3[C@](C)(CO)CCC[C@@]23C)C1 (some centres not stated) [acanthol]
